Laboratory results published in paper PMC6437697 (Journal of Medicinal Chemistry, 2019).

Columns and labels:
Assay in all cases: KINOMEscan
Assay type in all cases: binding
Settings in all cases: read-out: % control activity remaining
IKK-epsilon = biological target: T1, IKK-epsilon (Homo sapiens, UniProt Q14164)
T1 construct: purchased Eurofins DiscoverX KINOMEscan
T1 sequence (Q14164 1-716): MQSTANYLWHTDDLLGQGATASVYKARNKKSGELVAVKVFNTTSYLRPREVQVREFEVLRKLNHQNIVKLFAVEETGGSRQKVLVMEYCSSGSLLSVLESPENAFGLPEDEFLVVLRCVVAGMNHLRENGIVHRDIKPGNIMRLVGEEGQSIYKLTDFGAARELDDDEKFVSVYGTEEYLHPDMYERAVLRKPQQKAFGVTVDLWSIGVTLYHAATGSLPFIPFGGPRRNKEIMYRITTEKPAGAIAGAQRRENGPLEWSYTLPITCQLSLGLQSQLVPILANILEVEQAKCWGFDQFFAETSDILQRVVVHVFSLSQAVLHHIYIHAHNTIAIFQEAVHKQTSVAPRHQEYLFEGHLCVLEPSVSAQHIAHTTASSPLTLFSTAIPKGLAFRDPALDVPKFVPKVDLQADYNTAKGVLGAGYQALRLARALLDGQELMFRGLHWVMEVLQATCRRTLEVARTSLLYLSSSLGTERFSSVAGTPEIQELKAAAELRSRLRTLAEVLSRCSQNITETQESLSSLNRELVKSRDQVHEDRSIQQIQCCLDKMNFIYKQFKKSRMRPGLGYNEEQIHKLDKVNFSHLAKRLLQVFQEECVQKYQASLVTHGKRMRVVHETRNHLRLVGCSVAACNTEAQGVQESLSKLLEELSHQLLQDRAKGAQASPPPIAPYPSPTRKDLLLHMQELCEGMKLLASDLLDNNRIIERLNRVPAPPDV

HIPK3 = biological target: T2, HIPK3 (Homo sapiens, UniProt Q9H422)
T2 construct: purchased Eurofins DiscoverX KINOMEscan

IRAK1 = biological target: T3, IRAK1 (Homo sapiens, UniProt P51617)
T3 construct: purchased Eurofins DiscoverX KINOMEscan

TNNI3K = biological target: T4, TNNI3K (Homo sapiens, UniProt Q59H18)
T4 construct: purchased Eurofins DiscoverX KINOMEscan
T4 sequence (Q59H18 1-835): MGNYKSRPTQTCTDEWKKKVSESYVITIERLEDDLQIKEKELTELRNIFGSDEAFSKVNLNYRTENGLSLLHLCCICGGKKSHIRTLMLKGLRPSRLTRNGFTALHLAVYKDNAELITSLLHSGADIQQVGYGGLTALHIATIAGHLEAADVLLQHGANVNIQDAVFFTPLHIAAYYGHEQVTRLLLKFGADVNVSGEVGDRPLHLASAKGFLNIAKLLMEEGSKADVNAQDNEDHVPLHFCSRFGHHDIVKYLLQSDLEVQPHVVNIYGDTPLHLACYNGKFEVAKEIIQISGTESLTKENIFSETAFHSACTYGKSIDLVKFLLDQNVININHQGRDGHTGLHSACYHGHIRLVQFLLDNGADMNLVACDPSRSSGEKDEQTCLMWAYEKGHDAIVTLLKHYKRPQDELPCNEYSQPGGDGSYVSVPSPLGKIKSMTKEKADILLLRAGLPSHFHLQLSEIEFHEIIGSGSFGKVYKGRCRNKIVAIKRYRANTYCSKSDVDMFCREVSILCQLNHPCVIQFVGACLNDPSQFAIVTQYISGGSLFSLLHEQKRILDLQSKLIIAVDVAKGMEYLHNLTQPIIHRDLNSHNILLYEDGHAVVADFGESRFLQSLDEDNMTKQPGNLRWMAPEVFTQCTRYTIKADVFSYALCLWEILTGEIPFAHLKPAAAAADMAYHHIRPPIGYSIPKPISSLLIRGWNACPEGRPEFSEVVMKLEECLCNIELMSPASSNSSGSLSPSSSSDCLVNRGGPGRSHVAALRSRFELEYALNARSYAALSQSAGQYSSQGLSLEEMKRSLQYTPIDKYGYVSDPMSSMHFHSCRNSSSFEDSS

TRKA = biological target: T5, TRKA (Homo sapiens, UniProt P04629)
T5 construct: purchased Eurofins DiscoverX KINOMEscan

SRMS = biological target: T6, SRMS (Homo sapiens, UniProt Q9H3Y6)
T6 construct: purchased Eurofins DiscoverX KINOMEscan

CDK8 = biological target: T7, CDK8 (Homo sapiens, UniProt P49336)
T7 construct: purchased Eurofins DiscoverX KINOMEscan

SRC = biological target: T8, SRC (Homo sapiens, UniProt P12931)
T8 construct: purchased Eurofins DiscoverX KINOMEscan

[1] = biological target: T9, RPS6KA5(Kin.Dom.2-C-terminal) (Homo sapiens, UniProt O75582)
T9 construct: RPS6KA5(Kin.Dom.2-C-terminal); purchased Eurofins DiscoverX KINOMEscan

ROS1 = biological target: T10, ROS1 (Homo sapiens, UniProt P08922)
T10 construct: purchased Eurofins DiscoverX KINOMEscan

LTK = biological target: T11, LTK (Homo sapiens, UniProt P29376)
T11 construct: purchased Eurofins DiscoverX KINOMEscan

T10 sequence (P08922 28-2347): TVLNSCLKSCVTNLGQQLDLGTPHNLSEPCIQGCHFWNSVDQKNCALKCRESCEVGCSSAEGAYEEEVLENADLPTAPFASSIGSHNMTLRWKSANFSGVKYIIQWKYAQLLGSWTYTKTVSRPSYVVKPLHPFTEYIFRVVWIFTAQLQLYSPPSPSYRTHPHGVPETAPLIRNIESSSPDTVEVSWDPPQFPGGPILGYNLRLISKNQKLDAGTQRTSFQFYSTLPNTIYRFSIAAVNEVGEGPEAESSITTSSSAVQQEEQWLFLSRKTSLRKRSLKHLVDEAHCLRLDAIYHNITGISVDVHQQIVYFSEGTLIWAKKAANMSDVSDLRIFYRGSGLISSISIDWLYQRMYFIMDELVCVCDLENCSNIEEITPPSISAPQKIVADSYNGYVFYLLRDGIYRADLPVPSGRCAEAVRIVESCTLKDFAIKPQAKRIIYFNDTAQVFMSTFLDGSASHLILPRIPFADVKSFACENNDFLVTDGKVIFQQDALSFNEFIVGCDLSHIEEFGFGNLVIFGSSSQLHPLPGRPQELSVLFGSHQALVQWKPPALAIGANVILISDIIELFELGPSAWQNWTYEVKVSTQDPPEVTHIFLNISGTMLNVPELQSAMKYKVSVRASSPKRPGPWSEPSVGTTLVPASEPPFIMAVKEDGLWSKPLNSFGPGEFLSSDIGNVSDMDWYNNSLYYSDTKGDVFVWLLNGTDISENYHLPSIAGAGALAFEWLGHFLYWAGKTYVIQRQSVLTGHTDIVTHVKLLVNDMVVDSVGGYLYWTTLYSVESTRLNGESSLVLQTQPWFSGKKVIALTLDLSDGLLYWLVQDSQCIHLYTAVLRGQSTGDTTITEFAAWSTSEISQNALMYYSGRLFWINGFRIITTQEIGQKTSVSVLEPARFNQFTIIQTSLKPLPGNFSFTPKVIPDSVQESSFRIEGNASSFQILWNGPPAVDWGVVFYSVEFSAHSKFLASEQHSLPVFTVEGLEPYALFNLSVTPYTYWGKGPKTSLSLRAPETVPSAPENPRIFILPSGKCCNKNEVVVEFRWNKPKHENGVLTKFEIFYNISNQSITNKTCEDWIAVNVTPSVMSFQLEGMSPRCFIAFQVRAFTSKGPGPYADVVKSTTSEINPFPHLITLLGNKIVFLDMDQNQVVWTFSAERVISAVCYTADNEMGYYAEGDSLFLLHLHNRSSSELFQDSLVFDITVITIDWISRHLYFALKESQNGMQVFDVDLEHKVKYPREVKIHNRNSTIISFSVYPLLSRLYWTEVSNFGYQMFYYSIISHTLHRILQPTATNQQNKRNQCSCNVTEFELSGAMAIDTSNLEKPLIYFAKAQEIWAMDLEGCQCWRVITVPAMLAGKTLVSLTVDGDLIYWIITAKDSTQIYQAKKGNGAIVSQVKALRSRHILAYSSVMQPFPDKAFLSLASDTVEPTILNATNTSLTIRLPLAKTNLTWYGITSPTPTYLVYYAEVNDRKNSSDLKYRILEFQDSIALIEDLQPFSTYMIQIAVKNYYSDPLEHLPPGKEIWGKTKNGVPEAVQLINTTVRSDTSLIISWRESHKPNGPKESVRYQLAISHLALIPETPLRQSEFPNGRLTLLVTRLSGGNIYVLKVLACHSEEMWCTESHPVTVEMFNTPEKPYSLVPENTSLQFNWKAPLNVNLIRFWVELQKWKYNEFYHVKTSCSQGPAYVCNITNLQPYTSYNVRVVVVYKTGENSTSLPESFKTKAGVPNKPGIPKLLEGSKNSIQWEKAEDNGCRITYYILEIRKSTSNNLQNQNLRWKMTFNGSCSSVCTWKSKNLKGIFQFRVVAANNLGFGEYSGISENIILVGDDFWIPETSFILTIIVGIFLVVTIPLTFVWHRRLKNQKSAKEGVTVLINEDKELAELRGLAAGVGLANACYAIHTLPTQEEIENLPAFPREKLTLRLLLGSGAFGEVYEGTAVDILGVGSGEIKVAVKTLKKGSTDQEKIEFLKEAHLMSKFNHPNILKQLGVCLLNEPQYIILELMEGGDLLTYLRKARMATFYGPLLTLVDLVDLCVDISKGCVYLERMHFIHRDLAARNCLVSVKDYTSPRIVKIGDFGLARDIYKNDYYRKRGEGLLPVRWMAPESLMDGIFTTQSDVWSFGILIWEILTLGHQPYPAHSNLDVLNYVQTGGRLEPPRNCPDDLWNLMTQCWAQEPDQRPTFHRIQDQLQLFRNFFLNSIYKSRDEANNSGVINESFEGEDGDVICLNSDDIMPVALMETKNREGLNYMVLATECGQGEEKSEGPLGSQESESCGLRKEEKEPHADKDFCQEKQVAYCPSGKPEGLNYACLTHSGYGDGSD
T8 sequence (P12931 whole entry): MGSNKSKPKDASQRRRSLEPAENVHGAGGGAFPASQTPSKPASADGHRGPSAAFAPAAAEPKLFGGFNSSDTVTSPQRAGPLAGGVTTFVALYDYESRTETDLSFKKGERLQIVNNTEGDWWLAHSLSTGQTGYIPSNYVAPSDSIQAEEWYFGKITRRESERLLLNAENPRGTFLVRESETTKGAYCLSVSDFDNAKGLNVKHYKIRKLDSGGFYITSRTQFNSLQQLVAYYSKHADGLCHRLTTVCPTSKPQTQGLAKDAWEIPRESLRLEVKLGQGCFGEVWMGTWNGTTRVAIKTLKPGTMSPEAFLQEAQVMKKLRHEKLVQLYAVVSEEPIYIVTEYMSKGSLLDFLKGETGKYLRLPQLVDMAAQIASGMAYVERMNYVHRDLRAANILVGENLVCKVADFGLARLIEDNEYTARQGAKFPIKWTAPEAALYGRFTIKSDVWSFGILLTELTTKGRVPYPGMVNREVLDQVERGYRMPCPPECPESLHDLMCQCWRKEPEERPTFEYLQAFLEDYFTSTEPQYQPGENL
T3 sequence (P51617 whole entry): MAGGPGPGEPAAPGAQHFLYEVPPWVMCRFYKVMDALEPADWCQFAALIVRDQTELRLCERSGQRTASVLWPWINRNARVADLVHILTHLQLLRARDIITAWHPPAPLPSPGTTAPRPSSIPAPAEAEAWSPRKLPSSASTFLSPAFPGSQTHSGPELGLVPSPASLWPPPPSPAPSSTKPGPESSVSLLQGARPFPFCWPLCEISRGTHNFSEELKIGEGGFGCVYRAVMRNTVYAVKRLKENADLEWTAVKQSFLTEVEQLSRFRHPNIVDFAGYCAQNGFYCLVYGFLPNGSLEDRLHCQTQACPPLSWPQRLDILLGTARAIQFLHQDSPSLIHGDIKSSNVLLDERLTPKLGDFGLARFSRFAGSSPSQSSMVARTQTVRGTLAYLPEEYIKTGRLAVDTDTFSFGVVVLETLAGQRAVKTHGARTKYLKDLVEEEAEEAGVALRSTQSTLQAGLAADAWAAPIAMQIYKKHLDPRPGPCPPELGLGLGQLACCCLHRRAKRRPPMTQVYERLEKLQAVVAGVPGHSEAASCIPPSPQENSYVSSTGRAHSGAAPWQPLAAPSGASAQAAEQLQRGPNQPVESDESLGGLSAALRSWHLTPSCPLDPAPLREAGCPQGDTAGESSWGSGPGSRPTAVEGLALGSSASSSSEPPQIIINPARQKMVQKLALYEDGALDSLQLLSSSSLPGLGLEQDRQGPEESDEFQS
T7 sequence (P49336 whole entry): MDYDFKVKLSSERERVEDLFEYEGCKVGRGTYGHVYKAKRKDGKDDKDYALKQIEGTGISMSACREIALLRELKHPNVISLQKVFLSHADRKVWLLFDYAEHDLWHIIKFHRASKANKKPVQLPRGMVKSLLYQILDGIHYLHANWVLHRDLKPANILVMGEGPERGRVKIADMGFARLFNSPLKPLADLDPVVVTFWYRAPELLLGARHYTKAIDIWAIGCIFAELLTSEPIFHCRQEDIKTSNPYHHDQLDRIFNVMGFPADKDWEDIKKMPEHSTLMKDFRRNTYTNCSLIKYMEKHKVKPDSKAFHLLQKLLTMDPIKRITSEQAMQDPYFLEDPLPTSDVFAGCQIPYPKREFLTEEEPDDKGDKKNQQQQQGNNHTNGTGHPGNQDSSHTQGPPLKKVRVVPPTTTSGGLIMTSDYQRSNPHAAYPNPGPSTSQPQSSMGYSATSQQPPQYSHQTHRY
T5 sequence (P04629 33-796): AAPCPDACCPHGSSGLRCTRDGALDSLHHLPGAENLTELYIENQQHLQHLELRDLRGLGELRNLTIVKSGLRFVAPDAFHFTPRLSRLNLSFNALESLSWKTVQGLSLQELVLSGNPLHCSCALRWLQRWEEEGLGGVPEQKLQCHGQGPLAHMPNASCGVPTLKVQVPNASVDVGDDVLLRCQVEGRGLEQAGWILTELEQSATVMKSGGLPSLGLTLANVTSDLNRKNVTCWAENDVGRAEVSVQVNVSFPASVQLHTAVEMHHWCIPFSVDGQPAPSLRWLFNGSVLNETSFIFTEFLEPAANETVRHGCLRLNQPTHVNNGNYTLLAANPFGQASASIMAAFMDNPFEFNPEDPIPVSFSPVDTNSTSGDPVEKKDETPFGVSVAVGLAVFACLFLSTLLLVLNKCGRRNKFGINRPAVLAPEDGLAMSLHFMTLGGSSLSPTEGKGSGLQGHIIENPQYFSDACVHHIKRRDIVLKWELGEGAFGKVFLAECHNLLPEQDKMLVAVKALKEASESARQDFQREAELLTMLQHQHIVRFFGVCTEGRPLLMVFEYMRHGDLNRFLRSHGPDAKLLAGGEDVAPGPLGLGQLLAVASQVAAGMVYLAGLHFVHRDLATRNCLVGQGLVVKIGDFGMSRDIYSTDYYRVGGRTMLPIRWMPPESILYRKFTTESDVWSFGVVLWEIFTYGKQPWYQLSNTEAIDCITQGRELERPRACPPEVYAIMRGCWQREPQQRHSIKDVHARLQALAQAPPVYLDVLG
T9 sequence (O75582 426-687 limits assumed): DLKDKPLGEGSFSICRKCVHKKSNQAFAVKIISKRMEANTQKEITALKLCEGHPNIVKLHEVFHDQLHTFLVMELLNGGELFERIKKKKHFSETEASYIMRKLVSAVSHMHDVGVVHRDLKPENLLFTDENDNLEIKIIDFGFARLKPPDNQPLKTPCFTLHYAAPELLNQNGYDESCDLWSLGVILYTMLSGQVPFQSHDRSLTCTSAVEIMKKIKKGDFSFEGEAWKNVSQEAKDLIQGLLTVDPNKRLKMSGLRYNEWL

Compound | remaining binding at 1 µM (IKK-epsilon) [%] | remaining binding at 1 µM (HIPK3) [%] | remaining binding at 1 µM (IRAK1) [%] | remaining binding at 1 µM (TNNI3K) [%] | remaining binding at 1 µM (TRKA) [%] | remaining binding at 1 µM (SRMS) [%] | remaining binding at 1 µM (CDK8) [%] | remaining binding at 1 µM (SRC) [%] | remaining binding at 1 µM [1] [%] | remaining binding at 1 µM (ROS1) [%] | remaining binding at 1 µM (LTK) [%]
Clc1cc(NCC2CC2)c2ncc(-c3ccc4[nH]ncc4c3)n2n1 [compound 2, 6-Chloro-N-(cyclopropylmethyl)-3-(1H-indazol-5-yl)imidazo[1,2-b]pyridazin-8-amine] | 94 | 63 | 95 | 97 | 89 | 91 | 82 | 100 | 93 | 100 | 100
O=C(CN1CCOCC1)N[C@H]1CC[C@H](Nc2cc(Cl)nn3c(-c4ccc5[nH]ncc5c4)cnc23)CC1 [compound 26] | 100 | 2.4 | 45 | 100 | 19 | 86 | 97 | 100 | 80 | 100 | 88
CN1CCC(CNc2cc(Cl)nn3c(-c4cc5nc(Nc6ccccc6)[nH]c5cc4F)cnc23)CC1 [compound 31, 6-Chloro-3-(6-fluoro-2-(phenylamino)-1H-benzo[d]imidazol-5-yl)-N-((1-methylpiperidin-4-yl)methyl)imidazo[1,2-b]pyridazin-8-amine] | 78 | 89 | 89 | 100 | 96 | 95 | 70 | 100 | 99 | 96 | 88
